Test results: the CheMixHub viscosity set
Where “and” joins values, the source holds several entries; their conditions need not be identical. Equal values may be shown once.

Assay: xn = mol fraction of the nth substance listed

CC(Cl)(Cl)Cl + C1CCCCC1
303.15 K, 101 kPa
Details	viscosity [mPa·s]
x1 = 0.157	0.7897
x1 = 0.2218	0.776
x1 = 0.2876	0.7624
x1 = 0.3722	0.7462
x1 = 0.4768	0.7297
x1 = 0.543	0.7219
x1 = 0.679	0.713
x1 = 0.7525	0.7123
x1 = 0.8597	0.716
x1 = 0.9403	0.7201

CC/C(C)=N/O + C1CCCCC1
viscosity [mPa·s], 101.3 kPa
Details	x1 = 0.0972	x1 = 0.1952	x1 = 0.2926	x1 = 0.3921	x1 = 0.4913	x1 = 0.5914	x1 = 0.6926	x1 = 0.7942	x1 = 0.8967
293.15 K	1.007	1.072	1.166	1.302	1.489	1.75	2.122	2.681	3.585
298.15 K	0.923	0.982	1.065	1.182	1.339	1.567	1.884	2.347	3.035
303.15 K	0.844	0.895	0.967	1.068	1.205	1.397	1.667	2.053	2.622

CCCCCBr + C1CCCCC1
308.15 K, 101 kPa
Details	viscosity [mPa·s]
x2 = 0.0975	0.6428
x2 = 0.1991	0.6363
x2 = 0.2997	0.6323
x2 = 0.398	0.6305
x2 = 0.5025	0.6321
x2 = 0.5837	0.6355
x2 = 0.695	0.645
x2 = 0.8018	0.6614
x2 = 0.9007	0.6894

CC(Cl)(Cl)Cl + C1CCOC1
303.15 K, 101 kPa
Details	viscosity [mPa·s]
x2 = 0.0731	0.7289
x2 = 0.1213	0.7262
x2 = 0.2262	0.7112
x2 = 0.3894	0.6687
x2 = 0.4716	0.6424
x2 = 0.5677	0.6104
x2 = 0.6475	0.5834
x2 = 0.7415	0.5513
x2 = 0.8139	0.5271
x2 = 0.866	0.51

COC(=O)c1ccccc1C(=O)OC + C1CCOC1
viscosity [mPa·s], 101 kPa
Details	x1 = 0.1001	x1 = 0.2019	x1 = 0.2966	x1 = 0.3989	x1 = 0.5009	x1 = 0.5992	x1 = 0.7006	x1 = 0.8013	x1 = 0.9004
293.15 K	0.7426	1.073	1.505	2.155	3.107	4.313	6.121	8.638	12.37
298.15 K	0.7028	0.9986	1.383	1.947	2.756	3.756	5.214	7.181	9.998
303.15 K	0.666	0.9314	1.276	1.769	2.463	3.303	4.496	6.063	8.238
308.15 K	0.6197	0.8698	1.181	1.616	2.217	2.93	3.92	5.189	6.906
313.15 K	0.6531	0.8136	1.097	1.483	2.007	2.619	3.45	4.494	5.87
318.15 K	0.557	0.7619	1.021	1.365	1.828	2.357	3.063	3.933	5.056
323.15 K	0.4957	0.7137	0.9522	1.261	1.674	2.136	2.739	3.474	4.404

O=CO + C1CCOC1
298.15 K, 101 kPa
Details	viscosity [mPa·s]
x2 = 0.0662	1.443
x2 = 0.1376	1.396
x2 = 0.2148	1.328
x2 = 0.2985	1.233
x2 = 0.3896	1.114
x2 = 0.4891	0.9824
x2 = 0.5983	0.8395
x2 = 0.7186	0.6886
x2 = 0.8517	0.5576

CC(Cl)(Cl)Cl + C1COCCO1
101.33 kPa
Details	viscosity
298.15 K, x1 = 0.102	1.141 mPa·s
298.15 K, x1 = 0.201	1.097 mPa·s
298.15 K, x1 = 0.3	1.057 mPa·s
298.15 K, x1 = 0.4	1.016 mPa·s
298.15 K, x1 = 0.5	0.9762 mPa·s and 0.9767 mPa·s
298.15 K, x1 = 0.599	0.938 mPa·s
298.15 K, x1 = 0.7	0.9003 mPa·s
298.15 K, x1 = 0.8	0.8635 mPa·s
298.15 K, x1 = 0.862	0.8404 mPa·s
303.15 K, x2 = 0.0725	0.7541 mPa·s
303.15 K, x2 = 0.1135	0.771 mPa·s
303.15 K, x2 = 0.2041	0.8089 mPa·s
303.15 K, x2 = 0.336	0.8625 mPa·s
303.15 K, x2 = 0.4193	0.8943 mPa·s
303.15 K, x2 = 0.5168	0.9291 mPa·s
303.15 K, x2 = 0.6428	0.97 mPa·s
303.15 K, x2 = 0.7459	1.002 mPa·s
303.15 K, x2 = 0.8153	1.023 mPa·s
303.15 K, x2 = 0.9277	1.059 mPa·s

O=CO + C1COCO1
298.15 K, 101 kPa
Details	viscosity [mPa·s]
x2 = 0.0646	1.419
x2 = 0.1345	1.36
x2 = 0.2103	1.292
x2 = 0.2929	1.216
x2 = 0.3832	1.131
x2 = 0.4824	1.035
x2 = 0.5918	0.9302
x2 = 0.7131	0.8195
x2 = 0.8483	0.7018

CC(C)C1CCCCC1 + C1C[C@@H]2[C@H]3CC[C@H](C3)[C@@H]2C1
viscosity [mPa·s], 100 kPa
Details	x2 = 0.1002	x2 = 0.1999	x2 = 0.3001	x2 = 0.4	x2 = 0.5	x2 = 0.5999	x2 = 0.7001	x2 = 0.8003	x2 = 0.8999
293.15 K	1.194	1.305	1.431	1.578	1.741	1.938	2.165	2.421	2.706
298.15 K	1.106	1.206	1.32	1.451	1.597	1.775	1.976	2.205	2.456
303.15 K	1.029	1.119	1.222	1.34	1.471	1.631	1.812	2.016	2.241
308.15 K	0.96	1.042	1.135	1.242	1.361	1.506	1.67	1.853	2.055
313.15 K	0.898	0.973	1.058	1.156	1.265	1.397	1.543	1.709	1.891
318.15 K	0.842	0.911	0.989	1.078	1.178	1.298	1.431	1.581	1.746
323.15 K	0.793	0.855	0.927	1.009	1.1	1.21	1.331	1.467	1.616

CC(Cl)(Cl)Cl + CC1CCCCC1
303.15 K, 101 kPa
Details	viscosity [mPa·s]
x1 = 0.1468	0.6328
x1 = 0.2138	0.629
x1 = 0.31	0.6248
x1 = 0.4182	0.6239
x1 = 0.5255	0.6301
x1 = 0.5982	0.6379
x1 = 0.69	0.6518
x1 = 0.759	0.6659
x1 = 0.8273	0.6809
x1 = 0.9075	0.7009
